Converted amounts (≈) assume the structure as drawn. Like-named read-outs stand apart in the source and are kept apart here.
Experiments:
[1] = tested on: Bif. angulatum; assay: MIC against human gut microbiota; assay type: cell-based, Bifidobacterium angulatum; settings: Bif. angulatum HM- 1189, BHIS broth, anaerobic
[2] = tested on: L. brevis; assay: MIC against human gut microbiota; assay type: cell-based, Lactobacillus brevis; settings: L. brevis ATCC-14864, MRS broth, 5% CO2
[3] = tested on: Bif. breve; assay: MIC against human gut microbiota; assay type: cell-based, Bifidobacterium breve; settings: Bif. breve ATCC 15700, BHIS broth, anaerobic
[4] = tested on: C. difficile ATCC BAA-1870; assay: MIC of active hits by broth microdilution; settings: C. difficile ATCC BAA-1870, 48 h anaerobic
[5] = tested on: Bif. adolescentis; assay: MIC against human gut microbiota; assay type: cell-based, Bifidobacterium adolescentis; settings: Bif. adolescentis HM- 633, BHIS broth, anaerobic
[6] = tested on: L. rhamanosus; assay: MIC against human gut microbiota; assay type: cell-based, Lactobacillus rhamnoosus; settings: L. rhamanosus ATCC-53103, MRS broth, 5% CO2
[7] = tested on: Bifidobacterium species; assay: MIC against human gut microbiota, summary in text; assay type: cell-based; settings: summary over the Bifidobacterium strains of Table 4
[8] = tested on: L. casei; assay: MIC against human gut microbiota; assay type: cell-based; settings: L. casei ATCC 334, MRS broth, 5% CO2
[9] = tested on: E. faecium; assay: MIC against human gut microbiota; assay type: cell-based, Enterococcus faecium; settings: E. faecium HM-202, TSB, aerobic
[10] = tested on: B. dorei; assay: MIC against human gut microbiota; assay type: cell-based, Bacteroides dorei; settings: B. dorei HM- 719, BHIS broth, anaerobic
[11] = tested on: C. difficile clinical isolates; assay: MIC against a panel of 20 C. difficile clinical isolates (broth microdilution); assay type: cell-based, Clostridioides difficile; settings: for MIC50: concentration that inhibited 50% of the 20 C. difficile clinical isolates; for MIC: read-out: minimum inhibitory concentration (MIC); for MIC90: concentration that inhibited 90% of the 20 C. difficile clinical isolates
[12] = tested on: Bif. longum; assay: MIC against human gut microbiota; assay type: cell-based, Bifidobacterium longum; settings: anaerobic; for MIC: Bifidobacterium longum, read-out: minimum inhibitory concentration (MIC)
[13] = tested on: B. fragilis; assay: MIC against human gut microbiota; assay type: cell-based, Bacteroides fragilis; settings: anaerobic; for MIC: Bacteroides fragilis, read-out: minimum inhibitory concentration (MIC)
[14] = tested on: E. fecalis; assay: MIC against human gut microbiota; assay type: cell-based, Enterococcus faecalis; settings: E. fecalis HM-970, TSB, aerobic
[15] = tested on: mycobacteria; design: method as in PMID 33916775; settings: cited from earlier work
[16] = Bif. longum HM- 845, BHIS broth
[17] = Bif. longum HM- 846, BHIS broth
[18] = Bif. longum HM- 847, BHIS broth
[19] = Bif. longum HM- 848, BHIS broth
[20] = B. fragilis HM- 709, BHIS broth
[21] = B. fragilis HM- 718, BHIS broth

Compound: CCCCc1oc2ccc(NS(C)(=O)=O)cc2c1C(=O)c1ccc(OCCCN(CCCC)CCCC)cc1 [Dronedarone]
- MIC ([1]; Bifidobacterium angulatum, read-out: minimum inhibitory concentration (MIC)): 8 mg/L (≈ 14.4 µM)
- MIC ([2]; Levilactobacillus brevis, ATCC14864, read-out: minimum inhibitory concentration (MIC)): 32 mg/L (≈ 57.5 µM)
- MIC ([3]; Bifidobacterium breve, ATCC15700, read-out: minimum inhibitory concentration (MIC)): 8 mg/L (≈ 14.4 µM)
- MIC (μM) [4]: 8 µM
- MIC ([4]; Clostridioides difficile, ATCCBAA1870, 48 h): 4.45 mg/L
- MIC ([5]; Bifidobacterium adolescentis, read-out: minimum inhibitory concentration (MIC)): 8 mg/L (≈ 14.4 µM)
- MIC ([6]; Lactobacillus, ATCC53103, read-out: minimum inhibitory concentration (MIC)): 128 mg/L (≈ 230 µM)
- MIC [7]: 2 to 8 mg/L (≈ 3.59 to 14.4 µM)
- MIC ([8]; Lacticaseibacillus casei, ATCC334, read-out: minimum inhibitory concentration (MIC)): 64 mg/L (≈ 115 µM)
- MIC ([9]; Enterococcus faecium, read-out: minimum inhibitory concentration (MIC)): 8 mg/L (≈ 14.4 µM)
- MIC ([10]; Phocaeicola dorei, read-out: minimum inhibitory concentration (MIC)): 8 mg/L (≈ 14.4 µM)
- MIC50 ([11]; Clostridioides difficile, 48 h, read-out: MIC50): 4 mg/L (≈ 7.18 µM)
- MIC ([11]; Clostridioides difficile, ATCC630, C. difficile ATCC 630): 4 mg/L (≈ 7.18 µM)
- MIC ([11]; Clostridioides difficile, ATCC43255, C. difficile ATCC 43255): 4 mg/L (≈ 7.18 µM)
- MIC ([11]; Clostridioides difficile, ATCCBAA1870, C. difficile ATCC BAA-1870 (Ribotype-027), purchased compounds, panel test): 4 mg/L (≈ 7.18 µM)
- MIC ([11]; Clostridioides difficile, C. difficile CD-1 (Ribotype-027)): 4 mg/L (≈ 7.18 µM)
- MIC ([11]; Clostridioides difficile, C. difficile CD-6 (Ribotype-027)): 4 mg/L (≈ 7.18 µM)
- MIC ([11]; Clostridioides difficile, C. difficile CD-10(Ribotype-027)): 4 mg/L (≈ 7.18 µM)
- MIC ([11]; Clostridioides difficile, C. difficile CD-12): 4 mg/L (≈ 7.18 µM)
- MIC ([11]; Clostridioides difficile, C. difficile CD-13): 4 mg/L (≈ 7.18 µM)
- MIC ([11]; Clostridioides difficile, C. difficile CD-15): 4 mg/L (≈ 7.18 µM)
- MIC ([11]; Clostridioides difficile, C. difficile CD-22): 2 mg/L (≈ 3.59 µM)
- MIC ([11]; Clostridioides difficile, C. difficile CD-23): 8 mg/L (≈ 14.4 µM)
- MIC ([11]; Clostridioides difficile, C. difficile CD-24): 2 mg/L (≈ 3.59 µM)
- MIC ([11]; Clostridioides difficile, C. difficile CD-26 (Ribotype-027)): 4 mg/L (≈ 7.18 µM)
- MIC ([11]; Clostridioides difficile, C. difficile CD-28): 8 mg/L (≈ 14.4 µM)
- MIC ([11]; Clostridioides difficile, C. difficile CD-29 (Ribotype-027)): 2 mg/L (≈ 3.59 µM)
- MIC ([11]; Clostridioides difficile, C. difficile CD-30): 8 mg/L (≈ 14.4 µM)
- MIC ([11]; Clostridioides difficile, C. difficile NR-49302): 4 mg/L (≈ 7.18 µM)
- MIC ([11]; Clostridioides difficile, C. difficile NR-49304): 2 mg/L (≈ 3.59 µM)
- MIC ([11]; Clostridioides difficile, C. difficile NR-49308): 4 mg/L (≈ 7.18 µM)
- MIC ([11]; Clostridioides difficile, C. difficile NR-49319): 8 mg/L (≈ 14.4 µM)
- MIC50 ([11]; Clostridioides difficile, read-out: MIC50): 4 mg/L (≈ 7.18 µM)
- MIC90 ([11]; Clostridioides difficile, read-out: MIC90): 8 mg/L (≈ 14.4 µM)
- MIC [12, 16]: 8 mg/L (≈ 14.4 µM)
- MIC [12, 17]: 8 mg/L (≈ 14.4 µM)
- MIC [12, 18]: 8 mg/L (≈ 14.4 µM)
- MIC [12, 19]: 8 mg/L (≈ 14.4 µM)
- MIC [13, 20]: 8 mg/L (≈ 14.4 µM)
- MIC [13, 21]: 8 mg/L (≈ 14.4 µM)
- MIC ([14]; Enterococcus faecalis, read-out: minimum inhibitory concentration (MIC)): 4 mg/L (≈ 7.18 µM)

Compound: Milbemycin oxime
- minimum inhibitory concentration (MIC) [1]: 4 mg/L
- minimum inhibitory concentration (MIC) [2]: >256 mg/L
- MIC (antimycobacterial activity) [15]: < 8 mg/L
- minimum inhibitory concentration (MIC) [3]: 4 mg/L
- MIC (μM) [4]: 4 µM
- MIC (μg/mL) [4]: 4.39 µg/mL
- minimum inhibitory concentration (MIC) [5]: 4 mg/L
- minimum inhibitory concentration (MIC) [6]: >256 mg/L
- minimum inhibitory concentration (MIC) [8]: >256 mg/L
- minimum inhibitory concentration (MIC) [9]: 4 mg/L
- minimum inhibitory concentration (MIC) [10]: >256 mg/L
- minimum inhibitory concentration (MIC) ([11]; C. difficile ATCC 630): 4 mg/L
- minimum inhibitory concentration (MIC) ([11]; C. difficile ATCC 43255): 4 mg/L
- minimum inhibitory concentration (MIC) ([11]; C. difficile ATCC BAA-1870 (Ribotype-027), purchased compounds, panel test): 8 mg/L
- minimum inhibitory concentration (MIC) ([11]; C. difficile CD-1 (Ribotype-027)): 4 mg/L
- minimum inhibitory concentration (MIC) ([11]; C. difficile CD-6 (Ribotype-027)): 4 mg/L
- minimum inhibitory concentration (MIC) ([11]; C. difficile CD-10(Ribotype-027)): 4 mg/L
- minimum inhibitory concentration (MIC) ([11]; C. difficile CD-12): 4 mg/L
- minimum inhibitory concentration (MIC) ([11]; C. difficile CD-13): 8 mg/L
- minimum inhibitory concentration (MIC) ([11]; C. difficile CD-15): 4 mg/L
- minimum inhibitory concentration (MIC) ([11]; C. difficile CD-22): 8 mg/L
- minimum inhibitory concentration (MIC) ([11]; C. difficile CD-23): 4 mg/L
- minimum inhibitory concentration (MIC) ([11]; C. difficile CD-24): 4 mg/L
- minimum inhibitory concentration (MIC) ([11]; C. difficile CD-26 (Ribotype-027)): 4 mg/L
- minimum inhibitory concentration (MIC) ([11]; C. difficile CD-28): 8 mg/L
- minimum inhibitory concentration (MIC) ([11]; C. difficile CD-29 (Ribotype-027)): 4 mg/L
- minimum inhibitory concentration (MIC) ([11]; C. difficile CD-30): 4 mg/L
- minimum inhibitory concentration (MIC) ([11]; C. difficile NR-49302): 4 mg/L
- minimum inhibitory concentration (MIC) ([11]; C. difficile NR-49304): 8 mg/L
- minimum inhibitory concentration (MIC) ([11]; C. difficile NR-49308): 4 mg/L
- minimum inhibitory concentration (MIC) ([11]; C. difficile NR-49319): 8 mg/L
- MIC50 [11]: 4 mg/L
- MIC90 [11]: 8 mg/L
- minimum inhibitory concentration (MIC) [12, 16]: 8 mg/L
- minimum inhibitory concentration (MIC) [12, 17]: 8 mg/L
- minimum inhibitory concentration (MIC) [12, 18]: 8 mg/L
- minimum inhibitory concentration (MIC) [12, 19]: 8 mg/L
- minimum inhibitory concentration (MIC) [13, 20]: 32 mg/L
- minimum inhibitory concentration (MIC) [13, 21]: >256 mg/L
- minimum inhibitory concentration (MIC) [14]: 8 mg/L

From publication PMC11288027, “Exploring novel microbial metabolites and drugs for inhibiting Clostridioides difficile” (mSphere, 2024)
